As usually defined, the melting point is the temperature, or range, at which the solid turns liquid. `CCC/C=C/S(=O)(=O)NC(=O)/C=C/c1c(Cl)nc(C)n1Cc1ccc(/C=C/c2ccccc2)cc1Cl` [Example 42, (E)-3-(4-chloro-1-(2-chloro-4-((E)-2-phenylethenyl)benzyl)-2-methylimidazol-5-yl)-N-((E)-1-penten-1-ylsulfonyl)-2-propenamide] displayed a melting point of 226 to 228 °C.
As for `CCCCCS(=O)(=O)NC(=O)/C=C/c1c(Cl)nc(C)n1Cc1ccc(C#Cc2ccccc2)cc1Cl` [Example 44, (E)-3-(4-chloro-1-(2-chloro-4-(phenylethynyl)benzyl)-2-methylimidazol-5-yl)-N-(1-pentanesulfonyl)-2-propenamide], the figure is 207 to 209 °C; as for `CCC/C=C/S(=O)(=O)NC(=O)/C=C/c1c(Cl)nc(C)n1Cc1ccc(C#Cc2ccccc2)cc1Cl` [Example 45, (E)-3-(4-chloro-1-(2-chloro-4-(phenylethynyl)benzyl)-2-methylimidazol-5-yl)-N-((E)-1-penten-1-ylsulfonyl)-2-propenamide], 207 to 210 °C.
As for `Cc1nc(Cl)c(/C=C/C(=O)NS(=O)(=O)/C=C/c2ccccc2)n1Cc1ncc(C(F)(F)F)cc1Cl` [Example 47, (E)-3-(4-chloro-1-((3-chloro-5-(trifluoromethyl)pyridin-2-yl)methyl)-2-methylimidazol-5-yl)-N-((E)-2-phenylethenylsulfonyl)-2-propenamide], the melting point was in the range of 249 to 252 °C.
On to `CCCCCS(=O)(=O)NC(=O)/C=C/c1c(Cl)nc(C)n1Cc1ccc(NC(=O)OC(C)(C)C)cc1Cl` [Example 49, (E)-3-(1-(4-(tert-butoxycarbonylamino)-2-chlorobenzyl)-4-chloro-2-methylimidazol-5-yl)-N-(1-pentanesulfonyl)-2-propenamide], for which the melting point was in the range of 202 to 204 °C.
As for `CCC/C=C/S(=O)(=O)NC(=O)/C=C/c1c(Cl)nc(C)n1Cc1ccc(NC(=O)OC(C)(C)C)cc1Cl` [Example 50, (E)-3-(1-(4-(tert-butoxycarbonylamino)-2-chlorobenzyl)-4-chloro-2-methylimidazol-5-yl)-N-((E)-1-penten-1-ylsulfonyl)-2-propenamide], the figure is 209 to 210 °C; as for `CCc1nc(Cl)c(/C=C/C(=O)NS(=O)(=O)/C=C/c2ccccc2)n1Cc1ccc(Br)cc1Cl` [Example 53, (E)-3-(1-(4-bromo-2-chlorobenzyl)-4-chloro-2-ethylimidazol-5-yl)-N-((E)-2-phenylethenesulfonyl)-2-propenamide], 209 to 210 °C.
As for `CCc1nc(Cl)c(/C=C/C(=O)NS(=O)(=O)/C=C/c2ccccc2)n1Cc1ccc(C#Cc2ccccc2)cc1Cl` [Example 54, (E)-3-(4-chloro-1-(2-chloro-4-(phenylethynyl)benzyl)-2-ethylimidazol-5-yl)-N-((E)-2-phenylethenesulfonyl)-2-propenamide], the melting point fell in the range of 233 to 234 °C.
As for `CCCCS(=O)(=O)NC(=O)/C=C/c1c(Cl)nc(CC)n1Cc1ccc(C#Cc2ccccc2)cc1Cl` [Example 56, (E)-N-(1-butanesulfonyl)-3-(4-chloro-1-(2-chloro-4-(phenylethynyl)benzyl)-2-ethylimidazol-5-yl)-2-propenamide], the figure is 165 to 167 °C.
As for `CCCCCS(=O)(=O)NC(=O)/C=C/c1c(Cl)nc(CC)n1Cc1ccc(C#Cc2ccccc2)cc1Cl` [Example 57, (E)-3-(4-chloro-1-(2-chloro-4-(phenylethynyl)benzyl)-2-ethylimidazol-5-yl)-N-(1-pentanesulfonyl)-2-propenamide], the figure is 161 to 163 °C.
As for `CCC/C=C/S(=O)(=O)NC(=O)/C=C/c1c(Cl)nc(CC)n1Cc1ccc(C#Cc2ccccc2)cc1Cl` [Example 58, (E)-3-(4-chloro-1-(2-chloro-4-(phenylethynyl)benzyl)-2-ethylimidazol-5-yl)-N-((E)-1-penten-1-ylsulfonyl)-2-propenamide], the figure is 173 to 175 °C.
Take `CCc1nc(Cl)c(/C=C/C(=O)NS(=O)(=O)c2ccc(C)cc2)n1Cc1ccc(/C=C/c2ccccc2)cc1Cl` [Example 60, (E)-3-(4-chloro-1-(2-chloro-4-((E)-2-phenylethenyl)benzyl)-2-ethylimidazol-5-yl)-N-(4-methylbenzenesulfonyl)-2-propenamide]: the melting point lay within 250 to 252 °C.
As for `CCCCS(=O)(=O)NC(=O)/C=C/c1c(Cl)nc(CC)n1Cc1ccc(/C=C/c2ccccc2)cc1Cl` [Example 61, (E)-N-(1-butanesulfonyl)-3-(4-chloro-1-(2-chloro-4-((E)-2-phenylethenyl)benzyl)-2-ethylimidazol-5-yl)-2-propenamide], the figure is 210 to 213 °C; as for `CCCCCS(=O)(=O)NC(=O)/C=C/c1c(Cl)nc(CC)n1Cc1ccc(/C=C/c2ccccc2)cc1Cl` [Example 62, (E)-3-(4-chloro-1-(2-chloro-4-((E)-2-phenylethenyl)benzyl)-2-ethylimidazol-5-yl)-N-(1-pentanesulfonyl)-2-propenamide], 197 to 200 °C; as for `CCC/C=C/S(=O)(=O)NC(=O)/C=C/c1c(Cl)nc(CC)n1Cc1ccc(/C=C/c2ccccc2)cc1Cl` [Example 63, (E)-3-(4-chloro-1-(2-chloro-4-((E)-2-phenylethenyl)benzyl)-2-ethylimidazol-5-yl)-N-((E)-1-penten-1-ylsulfonyl)-2-propenamide], 197 to 200 °C.
As for `Cc1nc(C)n(Cc2ccc(Br)cc2Cl)c1/C=C/C(=O)NS(=O)(=O)/C=C/c1ccccc1` [Example 64, (E)-3-(1-(4-bromo-2-chlorobenzyl)-2,4-dimethylimidazol-5-yl)-N-((E)-2-phenylethenesulfonyl)-2-propenamide], the figure is 251 to 253 °C; as for `CCCCCOc1ccc(Cn2c(C)nc(Br)c2/C=C/C(=O)NS(=O)(=O)/C=C/c2ccccc2)c(Cl)c1` [Example 65, (E)-3-(4-bromo-1-(2-chloro-4-(1-pentyloxy)benzyl)-2-methylimidazol-5-yl)-N-((E)-2-phenylethenesulfonyl)-2-propenamide], 208 to 209 °C.
As for `CCCCCOc1ccc(Cn2c(/C=C(\Cc3ccccc3)C(=O)NS(=O)(=O)/C=C/c3ccccc3)cnc2C)c(Cl)c1` [Example 67, (E)-2-benzyl-3-(1-(2-chloro-4-(1-pentyloxy)benzyl)-2-methylimidazol-5-yl)-N-((E)-2-phenylethenesulfonyl)-2-propenamide], the figure is 171 to 172 °C; as for `CCCCCOc1ccc(Cn2c(/C=C(\CCCCC)C(=O)NS(=O)(=O)/C=C/c3ccccc3)cnc2C)c(Cl)c1` [Example 68, (E)-3-(1-(2-chloro-4-(1-pentyloxy)benzyl)-2-methylimidazol-5-yl)-2-(1-pentyl)-N-((E)-2-phenylethenesulfonyl)-2-propenamide], 168 to 169 °C; as for `CCCCCOc1ccc(Cn2c(/C=C(\Cc3cccnc3)C(=O)NS(=O)(=O)/C=C/c3ccccc3)cnc2C)c(Cl)c1` [Example 69, (E)-3-(1-(2-chloro-4-(1-pentyloxy)benzyl)-2-methylimidazol-5-yl)-2-((3-pyridyl)methyl)-N-((E)-2-phenylethenesulfonyl)-2-propenamide], 156 to 158 °C.
Take `CCCCCOc1ccc(Cn2c(/C=C(\C)C(=O)NS(=O)(=O)/C=C/c3ccccc3)cnc2C)c(Cl)c1` [Example 70, (E)-3-(1-(2-chloro-4-(1-pentyloxy)benzyl)-2-methylimidazol-5-yl)-2-methyl-N-((E)-2-phenylethenesulfonyl)-2-propenamide]: the melting point was 143 to 145 °C.
As for `CCCCCOc1ccc(Cn2c(C)nc(Cl)c2/C=C(\C)C(=O)NS(=O)(=O)/C=C/c2ccccc2)c(Cl)c1` [Example 71, (E)-3-(4-chloro-1-(2-chloro-4-(1-pentyloxy)benzyl)-2-methylimidazol-5-yl)-2-methyl-N-((E)-2-phenylethenesulfonyl)-2-propenamide], the figure is 156 to 157 °C; as for `CCCCCOc1ccc(Cn2c(C)nc(Cl)c2C(=O)NS(=O)(=O)/C=C/c2ccccc2)c(Cl)c1` [Example 72, 4-chloro-1-(2-chloro-4-(1-pentyloxy)benzyl)-2-methyl-5-((E)-2-phenylethenesulfonyl-carbamoyl)-1H-imidazole], 107 to 110 °C.
As for `CCCCCOc1ccc(Cn2c(C)nc(Cl)c2COC(=O)NS(=O)(=O)c2ccc(C)cc2)c(Cl)c1` [Example 73, (4-chloro-1-(2-chloro-4-(1-pentyloxy)benzyl)-2-methyl-1H-imidazol-5-yl)methyl N-(4-methylbenzenesulfonyl)carbamate], the figure is 109 to 111 °C.

(Values after patent US7060721B1, “Imidazole compounds and medicinal use thereof” (Fujisawa Pharmaceutical Co., Ltd., priority 1998, dated 2006).)
